These results are taken from US20240374535A1, “COMPOSITIONS AND METHODS FOR TREATING BIOFILM DISORDERS AND INFECTIONS” (AHV International B.V., priority 2021, published 2024).

Assay [1] concerns Staphylococcus epidermis ATCC 35984. In words: MIC assay (planktonic growth inhibition, OD600). To be noted: 24 h at 37° C. The class given is cell-based, S. epidermidis. An outline of the steps: (§1)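 Broth microdilution in MHB-II, two-fold series from 8 mM stock solution (Tween 80/DMSO co-diluted, 2.5% in top well). Inoculum from overnight TSA colonies adjusted to OD600 0.0008 (~10^6 CFU/mL); 24 h at 37° C., growth read as OD600; three independent experiments.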

Assay [2] concerns Pseudomonas aeruginosa ATCC 27853. The experiment in a line: MIC assay (planktonic growth inhibition, OD600). The format is cell-based, P. aeruginosa. Particulars: Pseudomonas aeruginosa, ATCC27853, 24 h at 37° C. An outline of the steps:
as §1

Assay [3] relates to Staphylococcus epidermis ATCC 35984 biofilm. In words: MBEC assay (biofilm eradication, CFU log reduction). The class given is cell-based, S. epidermidis. To be noted: 48 h grown biofilm, 20 h treatment, CFU log reduction vs untreated. An outline of the steps: (§2)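 Biofilms were grown 48 h static at 37 °C in TSB from inocula at OD600 0.2, then treated 20 h at 37 °C with 1, 0.5, 0.25 or 0.125 mM compound in saline (Tween 80 and DMSO each 0.63–0.08%), four replicates per condition. Resuspended biofilm was serially diluted and plated on TSA for 24 h; log CFU reduction versus untreated, with ≥1 counted as significant, in two independent experiments.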

The subject of assay [4] is Pseudomonas aeruginosa ATCC 27853 biofilm. Described as above. The class given is cell-based, P. aeruginosa. To be noted: 48 h grown biofilm, 20 h treatment, CFU log reduction vs untreated. In outline: as §2
Assay [5] relates to cows with a SCC of more as 250.000 cells/ml. In words: In vivo mastitis test: somatic cell count (SCC) in milk after a single oral tablet. The arrangement: species or system cow. To be noted: single oral tablet (10 g), 60 days, FIG. 1. As to the method: Experiments were performed to examine the effect of compounds on the cell count or somatic cell count (SCC) in milk.
Somatic cell counts (SCC) is related to the amount of pathogens that are in the quarter visible for the immune system. The cell count of each cow was measured with the milk production registration (MPR). This MPR is done periodically every 30-40 days at all farms. The Somatic Cell Count (SCC) is a main indicator of milk quality. The majority of somatic cells are leukocytes (white blood cells)—which become present in increasing numbers in milk usually as an immune response to a mastitis-causing pathogen—and a small number of epithelial cells, which are milk-producing cells shed from inside of the udder when an infection occurs.
The SCC data was extracted from milk production registrations (MPRs). MPRs are databases showing all details (e.g. SCC) of the produced milk per individual cow. MPRs of the selected farms were available periodically. SCC is quantified as the number of cells per ml of milk. In general terms: an individual cow with a value for SCC of 100,000 or less indicates an ‘uninfected’ cow and there were no significant production losses due to subclinical mastitis. A threshold SCC above 250,000 indicates infection and counts between 100,000 to 250,000 indicate a high risk of infection.
The experiments were performed on a farm with 90 cows. Examination was performed on cell count with the above described tablets during 60 days.
Cows with a SCC of more as 250.000 cells/ml before treatment were selected for administration of a single tablet.

Assay [6] relates to udder cleft wound. In words: In vivo udder cleft dermatitis test: wound assessment after spray treatment. Set-up: species or system cow.

Where only a bound is given, the exact number is not on record here.

As for `O=[SH](O)=S.c1ccc(-c2ccccc2)cc1` [Di-phenyl thiosulfonate, phenyl benzene thiosulfonate], the MIC50 is 1000 µM in assay [1] (minimal concentration reducing final OD600 by 50%, read-out: S. epidermidis MIC50) and 2000 µM in assay [2] (minimal concentration reducing final OD600 by 50%, read-out: P. aeruginosa MIC50). The MIC90 in assay [1] (minimal concentration reducing final OD600 by 90%, read-out: S. epidermidis MIC90) was determined as 2000 µM; in assay [2] (minimal concentration reducing final OD600 by 90%, read-out: P. aeruginosa MIC90), 2000 µM. Also, in assay [3], the “S. epidermidis MBEC mM with log reduction ≥1” value is listed as 2 mM. Also, the “P. aeruginosa MBEC mM with log reduction ≥1” value in assay [4] is over 4 mM. For the same compound, the “somatic cell count (SCC) of milk” value in assay [5] is given as “significantly decreased”. Further, the “inflammation of the udder cleft wound after treatment” value in assay [6] (immediately after the treatment, later infection reduced and wound healed) is given as “fast inflammation reduction”. In assay [6] (over 60 days, all cows of the group), the “Conclusion (effect on udder cleft wound)” value is “Positive effect”.
